Assay: Polymorphism screen of hydrochloride and benzoate salts: thermal cycling, evaporation, antisolvent addition, cooling (XRPD)
Format: physicochemical
Settings: solvent per experiment: -01 1,4-Dioxane, -02 1-Propanol, -03 2-Butanol, -05 2-Methyltetrahydrofuran, -06 2-Propanol, -07 Acetone, -08 Acetonitrile, -09 Anisole, -10 Chlorobenzene, -11 Ethanol, -12 Ethyl acetate, -13 Isopropyl acetate, -14 Methanol, -15 Propyl acetate, -16 Methylethyl ketone; for XRPD Result / 3-day Observations: hydrochloride salt, three days; for XRPD Result: solid isolated after thermal cycle between ambient and 40° C., -20 iso-Prop; for 3-day Observations: thermally cycled between ambient and 40° C., -17 Forma; for 3-day Observations / Initial Observations: -04 2-Ethoxyethanol; for Initial Observations: thermal cycle of lyophilised hydrochloride salt (~40 mg), solvent added, -17 Formamide
Procedure: Twenty five of the lyophilised samples were treated with solvent and thermally cycled between ambient and 40° C. with four hours spent under each condition. After three days and solids were isolated by centrifuge filtration and analysed by XRPD.
(§1) Twelve samples of the lyophilised material were treated with a minimal volume (ca 0.5 ml) of warm solvent, syringe filtered through a 0.22 µm filter and added to a clean HPLC vial and allowed to evaporate at RT. The solvents used and XRPD results following evaporation are detailed in the Table below:
as §1, with “micrometre” for “µm”
For antisolvent additions thirteen samples of the lyophilised material were dissolved in a small amount of hot solvent (^˜0.5 ml). […] A large excess of antisolvent was then added, the vials sealed. After storage at RT overnight, and samples where no solid had been produced were first cooled to 4° C. for ˜24 hrs, and again if no solid was produced, they were cooled to −18° C. Any solids were isolated by centrifuge filtration and analysed by XRPD.
For the cooling experiments twelve samples of the lyophilised material were dissolved in a small amount of hot solvent (^˜[…]) and syringe filtered through a 0.22 μm filter into a clean HPLC vial. Samples were allowed to cool to RT, and if no solid was produced to 4° C. and then to −18° C. Solids were isolated by centrifuge filtration and analysed by XRPD.

For COc1ccc2[nH]cc(CCN(C)C)c2c1.Cl [DJP2202-007-02], the “XRPD Result” value was “Pattern 1”, the “3-day Observations” value was “few crystals” and the “Initial Observations” value was “no change”.

In the case of COc1ccc2[nH]cc(CCN(C)C)c2c1.Cl [DJP2202-007-03], the “XRPD Result” value is reported as “Pattern 1”, the “3-day Observations” value is reported as “few crystals” and the “Initial Observations” value is reported as “no change”.

With COc1ccc2[nH]cc(CCN(C)C)c2c1.Cl [DJP2202-007-04] the “3-day Observations” value was “clear solution” and the “Initial Observations” value was “dissolved”.

For COc1ccc2[nH]cc(CCN(C)C)c2c1.Cl [DJP2202-007-05], the “XRPD Result” value was “Pattern 1”, the “3-day Observations” value was “few crystals” and the “Initial Observations” value was “no change”.

For COc1ccc2[nH]cc(CCN(C)C)c2c1.Cl [DJP2202-007-06], the “XRPD Result” value was “Pattern 1”, the “3-day Observations” value was “few crystals” and the “Initial Observations” value was “no change”.

For COc1ccc2[nH]cc(CCN(C)C)c2c1.Cl [DJP2202-007-07], the “XRPD Result” value was “Pattern 1”, the “3-day Observations” value was “few crystals” and the “Initial Observations” value was “no change”.

In the case of COc1ccc2[nH]cc(CCN(C)C)c2c1.Cl [DJP2202-007-08], the “XRPD Result” value is reported as “Pattern 1” and the “Initial Observations” value is reported as “no change”.

For COc1ccc2[nH]cc(CCN(C)C)c2c1.Cl [DJP2202-007-09], the “XRPD Result” value was “Pattern 1” and the “Initial Observations” value was “no change”.

For COc1ccc2[nH]cc(CCN(C)C)c2c1.Cl [DJP2202-007-10], the “XRPD Result” value was “Pattern 1”, the “3-day Observations” value was “white solid” and the “Initial Observations” value was “no change”.

For COc1ccc2[nH]cc(CCN(C)C)c2c1.Cl [DJP2202-007-11], the “XRPD Result” value was “Pattern 1”, the “3-day Observations” value was “white solid” and the “Initial Observations” value was “no change”.

With COc1ccc2[nH]cc(CCN(C)C)c2c1.Cl [DJP2202-007-12] the “XRPD Result” value was “Pattern 1”, the “3-day Observations” value was “white solid” and the “Initial Observations” value was “no change”.

With COc1ccc2[nH]cc(CCN(C)C)c2c1.Cl [DJP2202-007-13] the “XRPD Result” value was “Pattern 1”, the “3-day Observations” value was “white solid” and the “Initial Observations” value was “no change”.

For COc1ccc2[nH]cc(CCN(C)C)c2c1.Cl [DJP2202-007-15], the “XRPD Result” value was “Pattern 1” and the “Initial Observations” value was “no change”.

With COc1ccc2[nH]cc(CCN(C)C)c2c1.Cl [DJP2202-007-16] the “XRPD Result” value was “Pattern 2”, the “3-day Observations” value was “white crystals” and the “Initial Observations” value was “no change”.

For COc1ccc2[nH]cc(CCN(C)C)c2c1.Cl [DJP2202-007-17], the “3-day Observations” value was “few crystals” and the “Initial Observations” value was “dissolved”.

In the case of COc1ccc2[nH]cc(CCN(C)C)c2c1.Cl [DJP2202-007-18], the “3-day Observations” value is reported as “clear solution” and the “Initial Observations” value is reported as “dissolved”.

For COc1ccc2[nH]cc(CCN(C)C)c2c1.Cl [DJP2202-007-19], the “3-day Observations” value was “clear solution” and the “Initial Observations” value was “no change”.

For COc1ccc2[nH]cc(CCN(C)C)c2c1.Cl [DJP2202-007-20], the “XRPD Result” value was “Pattern 1”, the “3-day Observations” value was “few crystals” and the “Initial Observations” value was “no change”.

For COc1ccc2[nH]cc(CCN(C)C)c2c1.Cl [DJP2202-007-21], the “XRPD Result” value was “Pattern 1”, the “3-day Observations” value was “few crystals” and the “Initial Observations” value was “no change”.

For COc1ccc2[nH]cc(CCN(C)C)c2c1.Cl [DJP2202-007-22], the “XRPD Result” value was “Pattern 1”, the “3-day Observations” value was “few crystals” and the “Initial Observations” value was “no change”.

With COc1ccc2[nH]cc(CCN(C)C)c2c1.Cl [DJP2202-007-23] the “3-day Observations” value was “clear solution” and the “Initial Observations” value was “dissolved”.

In the case of COc1ccc2[nH]cc(CCN(C)C)c2c1.Cl [DJP2202-007-24], the “3-day Observations” value is reported as “clear solution” and the “Initial Observations” value is reported as “dissolved”.

With COc1ccc2[nH]cc(CCN(C)C)c2c1.Cl [DJP2202-007-25] the “3-day Observations” value was “clear solution” and the “Initial Observations” value was “dissolved”.
